# BigSolDB 2.1
structure (smiles),measurement,setting,value
COC(=O)c1cc(O)c(O)c(O)c1,solubility (mole fraction),"in acetone, 293.15 K",0.0929
same,solubility (mole fraction),"in acetone, 298.15 K",0.099
same,solubility (mole fraction),"in acetone, 303.15 K",0.106
same,solubility (mole fraction),"in acetone, 308.15 K",0.113
same,solubility (mole fraction),"in acetone, 313.15 K",0.121
same,solubility (mole fraction),"in acetone, 318.15 K",0.13
same,solubility (mole fraction),"in acetone, 323.15 K",0.139
same,solubility (mole fraction),"in acetone, 328.15 K",0.15
same,solubility (mole fraction),"in acetone, 333.15 K",0.161
same,solubility (mole fraction),"in ethanol, 293.15 K",0.0706
same,solubility (mole fraction),"in ethanol, 298.15 K",0.0758
same,solubility (mole fraction),"in ethanol, 303.15 K",0.0819
same,solubility (mole fraction),"in ethanol, 308.15 K",0.0881
same,solubility (mole fraction),"in ethanol, 313.15 K",0.0955
same,solubility (mole fraction),"in ethanol, 318.15 K",0.103
same,solubility (mole fraction),"in ethanol, 323.15 K",0.11
same,solubility (mole fraction),"in ethanol, 328.15 K",0.119
same,solubility (mole fraction),"in ethanol, 333.15 K",0.128
same,solubility (mole fraction),"in ethyl acetate, 293.15 K",0.0217
same,solubility (mole fraction),"in ethyl acetate, 298.15 K",0.0247
same,solubility (mole fraction),"in ethyl acetate, 303.15 K",0.0283
same,solubility (mole fraction),"in ethyl acetate, 308.15 K",0.0324
same,solubility (mole fraction),"in ethyl acetate, 313.15 K",0.0372
same,solubility (mole fraction),"in ethyl acetate, 318.15 K",0.0425
same,solubility (mole fraction),"in ethyl acetate, 323.15 K",0.0487
same,solubility (mole fraction),"in ethyl acetate, 328.15 K",0.055
same,solubility (mole fraction),"in ethyl acetate, 333.15 K",0.0621
same,solubility (mole fraction),"in isobutanol, 293.15 K",0.02
same,solubility (mole fraction),"in isobutanol, 298.15 K",0.0231
same,solubility (mole fraction),"in isobutanol, 303.15 K",0.0266
same,solubility (mole fraction),"in isobutanol, 308.15 K",0.0306
same,solubility (mole fraction),"in isobutanol, 313.15 K",0.0351
same,solubility (mole fraction),"in isobutanol, 318.15 K",0.0403
same,solubility (mole fraction),"in isobutanol, 323.15 K",0.0462
same,solubility (mole fraction),"in isobutanol, 328.15 K",0.0528
same,solubility (mole fraction),"in isobutanol, 333.15 K",0.0603
same,solubility (mole fraction),"in isopropanol, 293.15 K",0.0505
same,solubility (mole fraction),"in isopropanol, 298.15 K",0.0556
same,solubility (mole fraction),"in isopropanol, 303.15 K",0.0625
same,solubility (mole fraction),"in isopropanol, 308.15 K",0.0677
same,solubility (mole fraction),"in isopropanol, 313.15 K",0.0747
same,solubility (mole fraction),"in isopropanol, 318.15 K",0.0819
same,solubility (mole fraction),"in isopropanol, 323.15 K",0.0902
same,solubility (mole fraction),"in isopropanol, 328.15 K",0.0991
same,solubility (mole fraction),"in isopropanol, 333.15 K",0.107
same,solubility (mole fraction),"in methanol, 293.15 K",0.0812
same,solubility (mole fraction),"in methanol, 298.15 K",0.0864
same,solubility (mole fraction),"in methanol, 303.15 K",0.0931
same,solubility (mole fraction),"in methanol, 308.15 K",0.1
same,solubility (mole fraction),"in methanol, 313.15 K",0.107
same,solubility (mole fraction),"in methanol, 318.15 K",0.115
same,solubility (mole fraction),"in methanol, 323.15 K",0.123
same,solubility (mole fraction),"in methanol, 328.15 K",0.134
same,solubility (mole fraction),"in methanol, 333.15 K",0.143
same,solubility (mole fraction),"in methyl acetate, 293.15 K",0.0266
same,solubility (mole fraction),"in methyl acetate, 298.15 K",0.0305
same,solubility (mole fraction),"in methyl acetate, 303.15 K",0.0348
same,solubility (mole fraction),"in methyl acetate, 308.15 K",0.0396
same,solubility (mole fraction),"in methyl acetate, 313.15 K",0.045
same,solubility (mole fraction),"in methyl acetate, 318.15 K",0.0509
same,solubility (mole fraction),"in methyl acetate, 323.15 K",0.0573
same,solubility (mole fraction),"in methyl acetate, 328.15 K",0.0643
same,solubility (mole fraction),"in methyl acetate, 333.15 K",0.0718
same,solubility (mole fraction),"in n-butanol, 293.15 K",0.0354
same,solubility (mole fraction),"in n-butanol, 298.15 K",0.0398
same,solubility (mole fraction),"in n-butanol, 303.15 K",0.0446
same,solubility (mole fraction),"in n-butanol, 308.15 K",0.0499
same,solubility (mole fraction),"in n-butanol, 313.15 K",0.0557
same,solubility (mole fraction),"in n-butanol, 318.15 K",0.0621
same,solubility (mole fraction),"in n-butanol, 323.15 K",0.069
same,solubility (mole fraction),"in n-butanol, 328.15 K",0.0766
same,solubility (mole fraction),"in n-butanol, 333.15 K",0.0847
same,solubility (mole fraction),"in n-propanol, 293.15 K",0.0425
same,solubility (mole fraction),"in n-propanol, 298.15 K",0.0475
same,solubility (mole fraction),"in n-propanol, 303.15 K",0.053
same,solubility (mole fraction),"in n-propanol, 308.15 K",0.0582
same,solubility (mole fraction),"in n-propanol, 313.15 K",0.0646
same,solubility (mole fraction),"in n-propanol, 318.15 K",0.0713
same,solubility (mole fraction),"in n-propanol, 323.15 K",0.0783
same,solubility (mole fraction),"in n-propanol, 328.15 K",0.0864
same,solubility (mole fraction),"in n-propanol, 333.15 K",0.0957
